Measured values published in PubChem BioAssay AID1963848 (Molecular Pharmacology Branch, DTP, NCI, 2024).

Tested on: 379773-124-R-J2-PDC spheroid viability
Assay: Anticancer human tumor 379773-124-R-J2-PDC patient-derived endometrial carcinoma cell line growth inhibition [POLQ]
Conditions: spheroids with HUVEC and MSC; for IC50: curve of first compound; for viability, T/C: stronger effect = lower value
Experimental: Multicellular complex tumor spheroid response to Polymerase (POL) inhibitors (novobiocin, ART-558, RP6685) in combination with a variety of drugs and investigational agents in selected tumor cell lines
The POL inhibitors (novobiocin, ART-558, and RP6685) were evaluated both individually and in combination with standard of care and investigational anticancer small molecules within a complex spheroid model of solid tumors. . Complex spheroids include a stromal component modeled by human endothelial cells (HUVEC) and fibroblasts modeled by human mesenchymal stem cells (MSCs). The concentration ranges selected for each drug and investigational agent were based upon clinically achievable concentrations if the clinical Cmax of the agent was known.
Compounds. The drugs and investigational agents: novobiocin (NSC847541), ART-558 (NSC835418), RP-6685 (NSC848927), peposertib (NSC802822), ceralasertib (NSC780249), elimusertib (NSC800525), camonsertib (NSC841442), AZD-1390 (NSC803789), olaparib (NSC753686), talazoparib (NSC767125), rucaparib (NSC756644), sotorasib (NSC818433), MRTX-1133 (NSC836407), SN-38 (NSC673596), topotecan (NSC609699), epotoside (NSC141540), doxorubicin (NSC123127), gemcitabine (NSC613327), 5-fluorouracil (NSC19893), paclitaxel (NSC125973), vemurafenib (NSC761431), MSA-2 (NSC828583), SN-011 (NSC837082), adavosertib (NSC754352), prexasertib (NSC758257), carboplatin (NSC241240) and oxaliplatin (NSC266046), were obtained from the National Cancer Institute (NCI) Developmental Therapeutics Program Chemical Repository (21). The FDA-approved anticancer drug set is available from the Developmental Therapeutics Program at https://dtp.cancer.gov/organization/dscb/obtaining/. […] The stock solutions were prepared in dimethyl sulfoxide (DMSO, Sigma-Aldrich, St. Louis, MO, cat. D2650), except for the platinum compounds which were prepared in saline (Quality Biological, Gaithersburg, MD, cat. 114-055-101), at 800-fold the tested concentration and stored at -70 degrees C prior to their use. All drugs and investigational agents were tested over a range starting from a high concentration at or near the clinical Cmax and decreasing in half-log increments. If the clinical Cmax for an agent had not been determined, the highest concentration tested was 10 microM, except for SN-38, which was tested at a high concentration of 1 microM.
Cell Culture. All cells were maintained in an incubator at 37 degrees C and 5% CO2 with 95% humidity. The PDC lines were cultured according to standard operating procedures established by the NCI PDMR (https://pdmr.cancer.gov). Table 3 of the manuscript, lists the cell lines along with the number of the three cell types plated to form the mct-spheroids and media for tumor cell growth. After thawing, all PDC lines, except 997537-175-T-J1-PDC and 415267-285-R-J2-PDC, were cultured in Matrigel-coated flasks prepared with a working solution of 1X Ham's F-12 nutrient mix, without supplementation (Thermo Fisher Scientific, cat. 11765054), 100 U/mL penicillin-streptomycin (Thermo Fisher Scientific, cat. 15140122), and 2.5% Matrigel (Corning Inc., Corning, NY, cat. 354248) for the first three passages. The two PDC lines 997537-175-T-J1-PDC and 415267-285-R-J2-PDC were cultured on uncoated flasks. The 857933-349-R-J2-PDC line was cultured in 6C/Colon 1B media containing advanced DMEM/F-12 (Thermo Fisher Scientific, cat. 12634028), 10 mM HEPES (Thermo Fisher Scientific, cat. 15630080), 1X GlutaMAX supplement (Thermo Fisher Scientific, cat. 35050061), 0.1 mg/mL primocin (InvivoGen, San Diego, CA, cat. ant-pm-2), 10% defined fetal bovine serum, heat inactivated (HyClone Laboratories Inc., Logan, UT, cat. SH30070.03HI), 50% L-WRN conditioned media (ATCC, cat. CRL-3276), 1.25 mM N-Acetyl-L-cysteine (Sigma-Aldrich, cat. A9165), 10 mM nicotinamide (Sigma-Aldrich, cat. N0636), 1X B-27 supplement (Thermo Fisher Scientific, cat. 17504044), 1X N-2 supplement (Thermo Fisher Scientific, cat. […]
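Further: spheroids exposed to drugs for seven days before readout.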
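Wherever viability, T/C is given: percent viability relative to DMSO vehicle control taken as 100%.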

Compound: CC[C@@]1(O)C(=O)OCc2c1cc1n(c2=O)Cc2cc3c(CN(C)C)c(O)ccc3nc2-1 + Nc1ccc(C#CCN(C(=O)Cc2ncc(C(F)(F)F)cc2C(F)(F)F)c2ccc(F)cc2)nn1
- IC50 (second compound 0.0316 µM): 29.5 nM
- IC50 (second compound 0.1 µM): 29 nM
- IC50 (second compound 0.316 µM): 26 nM
- IC50 (second compound 1 µM): 26.4 nM
- IC50 (second compound 3.16 µM): 24.5 nM
- IC50 (second compound 10 µM): 22.5 nM
- viability, T/C (second compound 0.0316 µM, first compound 0.000316 µM): 96.7%
- viability, T/C (second compound 0.0316 µM, first compound 0.001 µM): 89%
- viability, T/C (second compound 0.0316 µM, first compound 0.00316 µM): 80.7%
- viability, T/C (second compound 0.0316 µM, first compound 0.01 µM): 96%
- viability, T/C (second compound 0.0316 µM, first compound 0.0316 µM): 47.3%
- viability, T/C (second compound 0.0316 µM, first compound 0.1 µM): 22.3%
- viability, T/C (second compound 0.1 µM, first compound 0.000316 µM): 90.8%
- viability, T/C (second compound 0.1 µM, first compound 0.001 µM): 87.6%
- viability, T/C (second compound 0.1 µM, first compound 0.00316 µM): 91.4%
- viability, T/C (second compound 0.1 µM, first compound 0.01 µM): 89.6%
- viability, T/C (second compound 0.1 µM, first compound 0.0316 µM): 46.7%
- viability, T/C (second compound 0.1 µM, first compound 0.1 µM): 19.8%
- viability, T/C (second compound 0.316 µM, first compound 0.000316 µM): 93%
- viability, T/C (second compound 0.316 µM, first compound 0.001 µM): 96.3%
- viability, T/C (second compound 0.316 µM, first compound 0.00316 µM): 102%
- viability, T/C (second compound 0.316 µM, first compound 0.01 µM): 86.2%
- viability, T/C (second compound 0.316 µM, first compound 0.0316 µM): 42.6%
- viability, T/C (second compound 0.316 µM, first compound 0.1 µM): 20.8%
- viability, T/C (second compound 1 µM, first compound 0.000316 µM): 100%
- viability, T/C (second compound 1 µM, first compound 0.001 µM): 92%
- viability, T/C (second compound 1 µM, first compound 0.00316 µM): 92.2%
- viability, T/C (second compound 1 µM, first compound 0.01 µM): 83.7%
- viability, T/C (second compound 1 µM, first compound 0.0316 µM): 43.6%
- viability, T/C (second compound 1 µM, first compound 0.1 µM): 21.2%
- viability, T/C (second compound 3.16 µM, first compound 0.000316 µM): 110%
- viability, T/C (second compound 3.16 µM, first compound 0.001 µM): 90.5%
- viability, T/C (second compound 3.16 µM, first compound 0.00316 µM): 85.8%
- viability, T/C (second compound 3.16 µM, first compound 0.01 µM): 85.1%
- viability, T/C (second compound 3.16 µM, first compound 0.0316 µM): 39.6%
- viability, T/C (second compound 3.16 µM, first compound 0.1 µM): 18.9%
- viability, T/C (second compound 10 µM, first compound 0.000316 µM): 94%
- viability, T/C (second compound 10 µM, first compound 0.001 µM): 79.9%
- viability, T/C (second compound 10 µM, first compound 0.00316 µM): 81.9%
- viability, T/C (second compound 10 µM, first compound 0.01 µM): 83.3%
- viability, T/C (second compound 10 µM, first compound 0.0316 µM): 36%
- viability, T/C (second compound 10 µM, first compound 0.1 µM): 21.8%
